In patent US20150087673A1, “METHODS FOR USING AND BIOMARKERS FOR AMPK-ACTIVATING COMPOUNDS” (RIGEL PHARMACEUTICALS, INC., priority 2013, published 2015):

Each compound was assayed on AMPK (assay: AMPK activation assay (enzyme-linked immunosorbent assay)).
Assay type: cell-based
How it was run: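 Compounds were tested for their capacity to activate the kinase using standard, commercially available kit reagents and procedures.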

EC50, 1000 to 5000 nM:
N#Cc1ccc(-c2ccc(Nc3ccc(C(=O)NC4CCN(Cc5ccccc5)CC4)nc3)cc2)cc1 [Compound 119, N-(1-benzylpiperidin-4-yl)-5-(4′-cyanobiphenyl-4-ylamino)picolinamide]
CC(=O)c1ccc(Oc2ccc(NC(=O)c3ccc(C(=O)N4CCN(c5ccc(S(C)(=O)=O)cc5)CC4)nc3)cn2)cc1 [Compound 487, N-(6-(4-acetylphenoxy)pyridin-3-yl)-6-(4-(4-(methylsulfonyl)phenyl)piperazine-1-carbonyl)nicotinamide]
N#Cc1ccc(CN2CCC(NC(=O)c3ccc(C(=O)N4CCN(C(=O)c5ccccc5)CC4)cn3)CC2)cc1 [Compound 80, 5-(4-benzoylpiperazine-1-carbonyl)-N-(1-(4-cyanobenzyl)piperidin-4-yl)picolinamide]
COc1cccc(CN2CCC(NC(=O)c3ccc(C(=O)N4CCC(Oc5ccc(S(C)(=O)=O)cc5)CC4)nc3)CC2)c1 [Compound 238, N-(1-(3-methoxybenzyl)piperidin-4-yl)-6-(4-(4-(methylsulfonyl)phenoxy)piperidine-1-carbonyl)nicotinamide]
O=C(Nc1ccc(C(=O)N2CCN(Cc3ccc(F)cc3)CC2)cn1)c1ccc(Oc2ccc(F)cc2)nc1 [Compound 177, N-(5-(4-(4-fluorobenzyl)piperazine-1-carbonyl)pyridin-2-yl)-6-(4-fluorophenoxy)nicotinamide]

EC50, > 10000 nM:
N#Cc1ccc(OC2CCN(C(=O)c3ccc(C(=O)NC4CCN(Cc5cocn5)CC4)cn3)CC2)cc1 [Compound 355, 6-(4-(4-cyanophenoxy)piperidine-1-carbonyl)-N-(1-(oxazol-4-ylmethyl)piperidin-4-yl)nicotinamide]

EC50, < 500 nM:
N#Cc1cccc(Oc2ccc(NC(=O)c3ccc(C(=O)N4CCN(Cc5ccc(F)cc5)CC4)cn3)cc2)c1 [Compound 56, N-(4-(3-cyanophenoxy)phenyl)-5-(4-(4-fluorobenzyl)piperazine-1-carbonyl)picolinamide]
N#Cc1ccc(CN2CCC(NC(=O)c3ccc(C(=O)N4CCC(Oc5ccc(S(F)(F)(F)(F)F)cc5)CC4)cn3)CC2)cc1 [Compound 492, N-(1-(4-cyanobenzyl)piperidin-4-yl)-5-(4-(4-(pentafluorosulfanyl)phenoxy)piperidine-1-carbonyl)picolinamide]
COc1ccc(C(=O)C2CCN(C(=O)c3ccc(C(=O)NC4CCN(Cc5cc(F)cc(F)c5)CC4)cn3)CC2)cc1 [Compound 310, N-(1-(3,5-difluorobenzyl)piperidin-4-yl)-6-(4-(4-methoxybenzoyl)piperidine-1-carbonyl)nicotinamide]
COc1ccc(C(=O)C2CCN(C(=O)c3ccc(C(=O)N[C@@H]4CCN(Cc5ccc(C#N)cc5)C[C@@H]4F)cn3)CC2)cc1 (relative stereo) [Compound 454, N-((cis)-1-(4-cyanobenzyl)-3-fluoropiperidin-4-yl)-6-(4-(4-methoxybenzoyl)piperidine-1-carbonyl)nicotinamide]
N#Cc1ccc(-c2ccc(NC(=O)c3ccc(C(=O)N4CCN(Cc5ccc(F)cc5)CC4)cn3)cc2)cc1 [Compound 24, N-(4-(4-cyanophenyl)phenyl)-5-(4-(4-fluorobenzyl)piperazine-1-carbonyl)picolinamide]
N#Cc1ccc(Oc2ccc(NC(=O)c3ccc(C(=O)N4CCN(Cc5ccc(F)cc5)CC4)nc3)cn2)cc1 [Compound 476, N-(6-(4-cyanophenoxy)pyridin-3-yl)-6-(4-(4-fluorobenzyl)piperazine-1-carbonyl)nicotinamide]
N#Cc1ccc(OC2CCN(C(=O)c3ccc(C(=O)NCCOc4ccc(F)cc4)nc3)CC2)cc1 [Compound 306, 5-(4-(4-cyanophenoxy)piperidine-1-carbonyl)-N-(2-(4-fluorophenoxy)ethyl)picolinamide]
CN(C)C(=O)c1ccc(Oc2ccc(NC(=O)c3ccc(C(=O)N4CCC(C(=O)c5ccc(F)cc5F)CC4)nc3)cn2)cc1 [Compound 481, 6-(4-(2,4-difluorobenzoyl)piperidine-1-carbonyl)-N-(6-(4-(dimethylcarbamoyl)phenoxy)pyridin-3-yl)nicotinamide]
O=C(NC1CCN(Cc2cc(F)cc(F)c2)CC1)c1ccc(C(=O)N2CCC(Oc3ccc(F)c(F)c3)CC2)cn1 [Compound 297, N-(1-(3,5-difluorobenzyl)piperidin-4-yl)-5-(4-(3,4-difluorophenoxy)piperidine-1-carbonyl)picolinamide]
O=C(Nc1cccc(Oc2ccccc2)c1)c1ccc(C(=O)N2CCN(Cc3ccc(F)cc3)CC2)cn1 [Compound 21, 5-(4-(4-fluorobenzyl)piperazine-1-carbonyl)-N-(3-phenoxyphenyl)picolinamide]
CS(=O)(=O)c1ccc(OC2CCN(C(=O)c3ccc(C(=O)NC4CCN(Cc5ccc(C#N)cc5)CC4)cn3)CC2)cc1 [Compound 397, N-(1-(4-cyanobenzyl)piperidin-4-yl)-6-(4-(4-(methylsulfonyl)phenoxy)piperidine-1-carbonyl)nicotinamide]
N#Cc1ccc(OC2CCN(C(=O)c3ccc(C(=O)NC4CCN(Cc5ccc(N6CCCC6)cc5)CC4)cn3)CC2)cc1 [Compound 336, 6-(4-(4-cyanophenoxy)piperidine-1-carbonyl)-N-(1-(4-(pyrrolidin-1-yl)benzyl)piperidin-4-yl)nicotinamide]
N#Cc1ccc(OC2CCN(C(=O)c3ccc(C(=O)NC4CCN(c5ccc(C#N)cc5)CC4)cn3)CC2)cc1 [Compound 418, 6-(4-(4-cyanophenoxy)piperidine-1-carbonyl)-N-(1-(4-cyanophenyl)piperidin-4-yl)nicotinamide]
N#Cc1ccc(O[C@H]2CC[C@@H](NC(=O)c3ccc(C(=O)N4CCN(Cc5ccc(F)cc5)CC4)cn3)CC2)cc1 [Compound 150, N-(cis-4-(4-cyanophenoxy)cyclohexyl)-5-(4-(4-fluorobenzyl)piperazine-1-carbonyl)picolinamide]
CC(=O)c1ccc(Oc2ccc(NC(=O)c3ccc(C(=O)N4CCC(Oc5ccc(S(C)(=O)=O)cc5)CC4)cn3)cn2)cc1 [Compound 259, N-(6-(4-acetylphenoxy)pyridin-3-yl)-5-(4-(4-(methylsulfonyl)phenoxy)piperidine-1-carbonyl)picolinamide]
COc1ccc(C(=O)C2CCN(c3ccc(C(=O)NC4CCN(Cc5ccc(C#N)cc5)CC4)nc3)CC2)cc1 [Compound 302, N-(1-(4-cyanobenzyl)piperidin-4-yl)-5-(4-(4-methoxybenzoyl)piperidin-1-yl)picolinamide]
CC(=O)Nc1ccc(OC2CCN(C(=O)c3ccc(C(=O)NC4CCN(Cc5ccc(C#N)cc5)CC4)cn3)CC2)cc1 [Compound 366, 6-(4-(4-acetamidophenoxy)piperidine-1-carbonyl)-N-(1-(4-cyanobenzyl)piperidin-4-yl)nicotinamide]
COc1ccc(C(=O)C2CCN(C(=O)c3ccc(C(=O)N[C@@H]4CCN(Cc5ccc(OC(F)(F)F)cc5)C[C@H]4F)cn3)CC2)cc1 (relative stereo) [Compound 350, N-((trans)-3-fluoro-1-(4-(trifluoromethoxy)benzyl)piperidin-4-yl)-6-(4-(4-methoxybenzoyl)piperidine-1-carbonyl)nicotinamide]
CS(=O)(=O)c1ccc(OC2CCN(C(=O)c3cnc(C(=O)Nc4ccc(Oc5ccc(F)cc5)nc4)cn3)CC2)cc1 [Compound 207, N-(6-(4-fluorophenoxy)pyridin-3-yl)-5-(4-(4-(methylsulfonyl)phenoxy)piperidine-1-carbonyl)pyrazine-2-carboxamide]
CS(=O)(=O)c1ccc(C(=O)C2CCN(C(=O)c3ccc(C(=O)Nc4ccc(Oc5ccc(F)cc5)nc4)nc3)CC2)cc1 [Compound 232, N-(6-(4-fluorophenoxy)pyridin-3-yl)-5-(4-(4-(methylsulfonyl)benzoyl)piperidine-1-carbonyl)picolinamide]
N#Cc1ccc(CN2CCC(NC(=O)c3ccc(C(=O)N4CCC(Oc5cccnc5)CC4)cn3)CC2)cc1 [Compound 283, N-(1-(4-cyanobenzyl)piperidin-4-yl)-5-(4-(pyridin-3-yloxy)piperidine-1-carbonyl)picolinamide]
CC(C)(c1ccccc1)N1CCN(C(=O)c2ccc(C(=O)NC3CCN(Cc4ccc(C#N)cc4)CC3)nc2)CC1 [Compound 133, N-(1-(4-cyanobenzyl)piperidin-4-yl)-5-(4-(2-phenylpropan-2-yl)piperazine-1-carbonyl)picolinamide]
N#Cc1ccc(CN2CCC(NC(=O)c3ccc(NC4CCN(c5ccc(C#N)cc5)CC4)cn3)CC2)cc1 [Compound 267, N-(1-(4-cyanobenzyl)piperidin-4-yl)-5-(1-(4-cyanophenyl)piperidin-4-ylamino)picolinamide]
O=C(Nc1ccc(Oc2ccc(F)cc2)nc1)c1ccc(C(=O)N2CCC(C(=O)c3ccc(F)cc3F)CC2)cn1 [Compound 342, 5-(4-(2,4-difluorobenzoyl)piperidine-1-carbonyl)-N-(6-(4-fluorophenoxy)pyridin-3-yl)picolinamide]

EC50, 500 to 1000 nM:
N#Cc1ccc(CN2CCc3ccc(NC(=O)c4ccc(C(=O)NCc5ccc(F)cc5)cn4)cc3C2)cc1 [Compound 144, N2-(2-(4-cyanobenzyl)-1,2,3,4-tetrahydroisoquinolin-7-yl)-N5-(4-fluorobenzyl)pyridine-2,5-dicarboxamide]
O=C(NC1CCN(c2ccccc2)CC1)c1ccc(C(=O)N2CCN(Cc3ccc(F)cc3)CC2)cn1 [Compound 14, 5-(4-(4-fluorobenzyl)piperazine-1-carbonyl)-N-(1-(phenyl)piperidin-4-yl)picolinamide]
CC(=O)Nc1ccc(OC2CCN(C(=O)c3ccc(C(=O)NC4CCN(Cc5ccc(F)cc5)CC4)cn3)CC2)cc1 [Compound 406, 6-(4-(4-acetamidophenoxy)piperidine-1-carbonyl)-N-(1-(4-fluorobenzyl)piperidin-4-yl)nicotinamide]
O=C(c1ccc(C(=O)N2CCN(Cc3ccc(F)cc3)CC2)nc1)N1CCN(Cc2ccc(F)cc2)CC1 [Compound 3, pyridine-2,5-diylbis((4-(4-fluorobenzyl)piperazin-1-yl)methanone)]
